From patent publication US12637461B2, “Compounds for the activation of AMPK” (PFIZER INC., priority 2022, dated 2026)

Target: T1, human AMPK α2β2γ3 (Homo sapiens, UniProt O43741+P54646+Q9UGI9)
T1 construct: expressed in transfected cells; host or cells: HEK293AD cells, MaxCyte bulk electroporation
Experiment: Primary cellular assay: γ3 associated phospho-Thr172 AMPK detection (custom pAMPK Surefire AlphaLISA) in α2β2γ3 bulk transiently transfected HEK293 cells
Format: cell-based
Conditions: activation of human AMPK α2β2γ3 (γ3 pThr172 AMPK signal) in transiently transfected HEK293 cells, 20 minutes compound incubation; for EC50: geometric mean EC50, read-out: Assay GMean EC50; for Emax: 20 min, read-out: Assay GMean Asy. Max (%)
How it was run: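 Transiently co-transfected (α2/β2/γ3 plasmids, electroporation) HEK293AD cells, plated 2 days in low-glucose DMEM+10% FBS, treated 20 min with compounds (11-point half-log dilutions). Lysates read by modified AlphaLISA capturing γ3 with pThr172 antibody detection. % effect relative to 30 μM HPE and DMSO; EC50 and Emax from curve fit.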

[1] = geometric mean of the asymptotic max

T1 sequence (P54646 whole entry): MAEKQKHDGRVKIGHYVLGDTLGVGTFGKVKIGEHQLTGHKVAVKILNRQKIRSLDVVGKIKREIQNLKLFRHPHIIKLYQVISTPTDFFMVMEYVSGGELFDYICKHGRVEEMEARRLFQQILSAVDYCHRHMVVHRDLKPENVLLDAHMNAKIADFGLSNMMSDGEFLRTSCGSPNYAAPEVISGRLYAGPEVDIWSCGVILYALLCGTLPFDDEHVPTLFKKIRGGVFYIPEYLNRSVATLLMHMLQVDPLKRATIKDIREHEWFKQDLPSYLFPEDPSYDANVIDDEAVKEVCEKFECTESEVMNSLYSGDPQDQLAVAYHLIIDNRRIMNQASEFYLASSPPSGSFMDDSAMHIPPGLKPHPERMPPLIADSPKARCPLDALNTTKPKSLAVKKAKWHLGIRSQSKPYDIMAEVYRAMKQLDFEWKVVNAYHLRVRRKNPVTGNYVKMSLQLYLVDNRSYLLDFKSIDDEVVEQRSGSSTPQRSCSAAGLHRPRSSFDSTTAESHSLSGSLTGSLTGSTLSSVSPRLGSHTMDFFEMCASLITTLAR
T1 sequence (O43741 whole entry): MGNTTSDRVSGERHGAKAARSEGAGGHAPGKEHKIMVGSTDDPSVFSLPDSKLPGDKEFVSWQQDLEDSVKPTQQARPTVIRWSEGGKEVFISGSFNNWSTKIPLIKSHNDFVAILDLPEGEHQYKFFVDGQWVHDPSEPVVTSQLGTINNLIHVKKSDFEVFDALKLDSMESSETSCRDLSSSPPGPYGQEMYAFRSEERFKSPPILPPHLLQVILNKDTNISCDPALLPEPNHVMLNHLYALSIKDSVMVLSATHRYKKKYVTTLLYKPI
T1 sequence (Q9UGI9 whole entry): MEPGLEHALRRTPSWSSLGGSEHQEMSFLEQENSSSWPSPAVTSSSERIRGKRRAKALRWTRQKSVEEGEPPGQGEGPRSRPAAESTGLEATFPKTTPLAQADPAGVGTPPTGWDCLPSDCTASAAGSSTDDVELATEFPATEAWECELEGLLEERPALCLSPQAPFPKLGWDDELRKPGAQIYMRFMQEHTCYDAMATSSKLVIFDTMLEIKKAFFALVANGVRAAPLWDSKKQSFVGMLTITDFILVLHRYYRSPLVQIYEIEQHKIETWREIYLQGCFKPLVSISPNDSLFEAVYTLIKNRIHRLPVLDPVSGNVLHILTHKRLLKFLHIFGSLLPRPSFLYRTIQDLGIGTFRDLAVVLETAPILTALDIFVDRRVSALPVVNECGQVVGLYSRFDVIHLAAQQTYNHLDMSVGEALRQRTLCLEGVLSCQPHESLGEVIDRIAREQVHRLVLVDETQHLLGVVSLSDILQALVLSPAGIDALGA

Row | EC50 | Assay GMean Asy. Max (%) [1] | Emax [1] | SMILES
1 | 27.2 nM | 119% | – | Cn1cc(F)c(N2CC(C)(c3cccc(Cl)c3F)c3c(ccc(NC4CN(C5CCCNC5=O)C4)c3F)C2=O)n1 (stereo not shown) [Example 35, 4-(3-Chloro-2-fluorophenyl)-5-fluoro-2-(4-fluoro-1-methyl-1H-pyrazol-3-yl)-4-methyl-6-{[1-(2-oxopiperidin-3-γ1)azetidin-3-yl]amino}-3,4-dihydroisoquinolin-1(2H)-one]
2 | 149 nM | – | 96.5% | Cn1cc(F)c(N2CC(C)(c3cccc(Cl)c3F)c3c(ccc(NC4CN(C5CCCNC5=O)C4)c3F)C2=O)n1 (stereo not shown) [Example 36, 4-(3-Chloro-2-fluorophenyl)-5-fluoro-2-(4-fluoro-1-methyl-1H-pyrazol-3-yl)-4-methyl-6-{[1-(2-oxopiperidin-3-γ1)azetidin-3-yl]amino}-3,4-dihydroisoquinolin-1(2H)-one]
3 | 899 nM | – | 72.1% | C[C@]1(c2cccc(Cl)c2F)CN(c2n[nH]cc2F)C(=O)c2cnc(NC3CN(C(=O)[C@@H]4C[C@@H]4F)C3)c(F)c21 [Example 112, (4R)-4-(3-chloro-2-fluorophenyl)-5-fluoro-6-({1-[(1S,2S)-2-fluorocyclopropane-1-carbonyl]azetidin-3-yl}amino)-2-(4-fluoro-1H-pyrazol-3-yl)-4-methyl-3,4-dihydro-2,7-naphthyridin-1(2H)-one]
4 | 68.7 nM | – | 91.2% | Cn1cc(F)c(N2C[C@](C)(c3cccc(Cl)c3F)c3c(cnc(NC4CN(C(=O)[C@@H]5CC5(F)F)C4)c3F)C2=O)n1 [compound 39, (4R)-4-(3-chloro-2-fluorophenyl)-6-({1-[(1S)-2,2-difluorocyclopropane-1-carbonyl]azetidin-3-yl}amino)-5-fluoro-2-(4-fluoro-1-methyl-1H-pyrazol-3-yl)-4-methyl-3,4-dihydro-2,7-naphthyridin-1(2H)-one]
5 | 113 nM | – | 58.8% | C[C@@H](O)C(=O)N1CC(Nc2ncc3c(c2F)[C@@](C)(c2cccc(Cl)c2F)CN(c2nn(C)cc2F)C3=O)C1 [compound 40, (4R)-4-(3-chloro-2-fluorophenyl)-5-fluoro-2-(4-fluoro-1-methyl-1H-pyrazol-3-yl)-6-({1-[(2R)-2-hydroxypropanoyl]azetidin-3-yl}amino)-4-methyl-3,4-dihydro-2,7-naphthyridin-1(2H)-one]
6 | 120 nM | – | 80.2% | CN(C)CC(=O)N1CC(Nc2ncc3c(c2F)[C@@](C)(c2cccc(Cl)c2F)CN(c2nn(C)cc2F)C3=O)C1 [compound 41, (4R)-4-(3-chloro-2-fluorophenyl)-6-({1-[(dimethylamino)acetyl]azetidin-3-yl}amino)-5-fluoro-2-(4-fluoro-1-methyl-1H-pyrazol-3-yl)-4-methyl-3,4-dihydro-2,7-naphthyridin-1(2H)-one]
7 | 110 nM | – | 71.4% | C[C@]1(c2cccc(Cl)c2F)CN(c2ccc(CCO)cn2)C(=O)c2cnc(NC3CN(C(=O)[C@@H]4C[C@@H]4F)C3)c(F)c21 [compound 48, (4R)-4-(3-chloro-2-fluorophenyl)-5-fluoro-6-({1-[(1S,2S)-2-fluorocyclopropane-1-carbonyl]azetidin-3-yl}amino)-2-[5-(2-hydroxyethyl)pyridin-2-yl]-4-methyl-3,4-dihydro-2,7-naphthyridin-1(2H)-one]
8 | 63.9 nM | – | 77.3% | C[C@H](O)c1ccc(N2C[C@](C)(c3cccc(Cl)c3F)c3c(cnc(NC4CN(C(=O)[C@@H]5C[C@@H]5F)C4)c3F)C2=O)nc1 [compound 49, (4R)-4-(3-chloro-2-fluorophenyl)-5-fluoro-6-({1-[(1S,2S)-2-fluorocyclopropane-1-carbonyl]azetidin-3-yl}amino)-2-{5-[(1S)-1-hydroxyethyl]pyridin-2-yl}-4-methyl-3,4-dihydro-2,7-naphthyridin-1(2H)-one]
9 | 233 nM | – | 63.7% | C[C@]1(c2cccc(Cl)c2F)CN(c2ccc(OC(F)F)cn2)C(=O)c2cnc(NC3CN(C(=O)[C@@H]4C[C@@H]4F)C3)c(F)c21 [compound 50, (4R)-4-(3-chloro-2-fluorophenyl)-2-[5-(difluoromethoxy)pyridin-2-yl]-5-fluoro-6-({1-[(1S,2S)-2-fluorocyclopropane-1-carbonyl]azetidin-3-yl}amino)-4-methyl-3,4-dihydro-2,7-naphthyridin-1(2H)-one]
10 | 49.1 nM | – | 63.2% | CNc1ccc(N2C[C@](C)(c3cccc(Cl)c3F)c3c(cnc(NC4CN(C(=O)[C@@H]5C[C@@H]5F)C4)c3F)C2=O)nc1 [compound 51, (4R)-4-(3-chloro-2-fluorophenyl)-5-fluoro-6-({1-[(1S,2S)-2-fluorocyclopropane-1-carbonyl]azetidin-3-yl}amino)-4-methyl-2-[5-(methylamino)pyridin-2-yl]-3,4-dihydro-2,7-naphthyridin-1(2H)-one]
11 | 47.4 nM | – | 65.4% | C[C@]1(c2cccc(Cl)c2F)CN(c2ccc(CO)cn2)C(=O)c2cnc(NC3CN(C(=O)[C@@H]4C[C@@H]4F)C3)c(F)c21 [compound 52, (4R)-4-(3-chloro-2-fluorophenyl)-5-fluoro-6-({1-[(1S,2S)-2-fluorocyclopropane-1-carbonyl]azetidin-3-yl}amino)-2-[5-(hydroxymethyl)pyridin-2-yl]-4-methyl-3,4-dihydro-2,7-naphthyridin-1(2H)-one]
12 | 131 nM | – | 91% | C[C@]1(c2cccc(Cl)c2F)CN(c2ccc([C@@H]3COCCN3)cc2)C(=O)c2cnc(NC3CN(C(=O)[C@@H]4C[C@@H]4F)C3)c(F)c21 [compound 53, (4R)-4-(3-chloro-2-fluorophenyl)-5-fluoro-6-({1-[(1S,2S)-2-fluorocyclopropane-1-carbonyl]azetidin-3-yl}amino)-4-methyl-2-{4-[(3R)-morpholin-3-yl]phenyl}-3,4-dihydro-2,7-naphthyridin-1(2H)-one]
13 | 58.1 nM | – | 79.5% | Cn1ccc(N2C[C@](C)(c3cccc(Cl)c3F)c3c(cnc(NC4CN(C(=O)[C@@H]5C[C@@H]5F)C4)c3F)C2=O)n1 [compound 54, (4R)-4-(3-chloro-2-fluorophenyl)-5-fluoro-6-({1-[(1S,2S)-2-fluorocyclopropane-1-carbonyl]azetidin-3-yl}amino)-4-methyl-2-(1-methyl-1H-pyrazol-3-yl)-3,4-dihydro-2,7-naphthyridin-1(2H)-one]
14 | 24 nM | – | 30.9% | C[C@]1(c2cccc(Cl)c2F)CN(c2cc(OC(F)F)ccn2)C(=O)c2cnc(NC3CN(C(=O)[C@@H]4C[C@@H]4F)C3)c(F)c21 [compound 55, (4R)-4-(3-chloro-2-fluorophenyl)-2-[4-(difluoromethoxy)pyridin-2-yl]-5-fluoro-6-({1-[(1S,2S)-2-fluorocyclopropane-1-carbonyl]azetidin-3-yl}amino)-4-methyl-3,4-dihydro-2,7-naphthyridin-1(2H)-one]
15 | 256 nM | – | 92.9% | C[C@]1(c2cccc(Cl)c2F)CN(c2ccccc2F)C(=O)c2cnc(NC3CN(C(=O)[C@@H]4C[C@@H]4F)C3)c(F)c21 [compound 56, (4R)-4-(3-chloro-2-fluorophenyl)-5-fluoro-6-({1-[(1S,2S)-2-fluorocyclopropane-1-carbonyl]azetidin-3-yl}amino)-2-(2-fluorophenyl)-4-methyl-3,4-dihydro-2,7-naphthyridin-1(2H)-one]
16 | 75 nM | – | 84.9% | CC(C)(O)C(=O)N1CC(Nc2ncc3c(c2F)[C@@](C)(c2cccc(Cl)c2F)CN(c2ccc(CO)cn2)C3=O)C1 [compound 57, (4R)-4-(3-chloro-2-fluorophenyl)-5-fluoro-6-{[1-(2-hydroxy-2-methylpropanoyl)azetidin-3-yl]amino}-2-[5-(hydroxymethyl)pyridin-2-yl]-4-methyl-3,4-dihydro-2,7-naphthyridin-1(2H)-one]
17 | 113 nM | – | 74.6% | Cn1cncc1C(=O)N1CC(Nc2ncc3c(c2F)[C@@](C)(c2cccc(Cl)c2F)CN(c2ccc(CO)cn2)C3=O)C1 [compound 58, (4R)-4-(3-chloro-2-fluorophenyl)-5-fluoro-2-[5-(hydroxymethyl)pyridin-2-yl]-4-methyl-6-{[1-(1-methyl-1H-imidazole-5-carbonyl)azetidin-3-yl]amino}-3,4-dihydro-2,7-naphthyridin-1(2H)-one]
18 | 157 nM | – | 62.4% | C[C@]1(c2cccc(Cl)c2F)CN(c2ccc(CO)cn2)C(=O)c2cnc(NC3CN(C(=O)c4ncccn4)C3)c(F)c21 [compound 59, (4R)-4-(3-chloro-2-fluorophenyl)-5-fluoro-2-[5-(hydroxymethyl)pyridin-2-yl]-4-methyl-6-{[1-(pyrimidine-2-carbonyl)azetidin-3-yl]amino}-3,4-dihydro-2,7-naphthyridin-1(2H)-one]
19 | 53.5 nM | – | 48.6% | Cn1cc(C(=O)N2CC(Nc3ncc4c(c3F)[C@@](C)(c3cccc(Cl)c3F)CN(c3ccc(CO)cn3)C4=O)C2)nn1 [compound 60, (4R)-4-(3-chloro-2-fluorophenyl)-5-fluoro-2-[5-(hydroxymethyl)pyridin-2-yl]-4-methyl-6-{[1-(1-methyl-1H-1,2,3-triazole-4-carbonyl)azetidin-3-yl]amino}-3,4-dihydro-2,7-naphthyridin-1(2H)-one]
20 | 92.2 nM | – | 100% | Cn1cc(F)c(N2C[C@](C)(c3cccc(Cl)c3F)c3c(cnc(NC4CN(C(=O)C(C)(C)O)C4)c3F)C2=O)n1 [compound 61, (4R)-4-(3-chloro-2-fluorophenyl)-5-fluoro-2-(4-fluoro-1-methyl-1H-pyrazol-3-yl)-6-{[1-(2-hydroxy-2-methylpropanoyl)azetidin-3-yl]amino}-4-methyl-3,4-dihydro-2,7-naphthyridin-1(2H)-one]
